Reference: US20140161917A1, “Use of Nesprin-2 Expression Modulators and Compositions Thereof” (Avon Products, Inc., priority 2012, published 2014)

Test system: Nesprin-2 (SYNE2)
Experiment: Assay for upregulation of Nesprin-2 mRNA (Panomics Quantigene multiplex branched DNA assay) in fibroblasts
Type: cell-based, human
Conditions: 24 hours, vs vehicle control
Procedure: A variety of botanical extract and synthetic compounds were tested for the ability to up-regulate […]-2 (SYNE2), Gene Accession Number-NM-182914.2. Normal human dermal fibroblasts or keratinocytes were cultured in 96-well tissue culture treated plates, containing appropriate culture medium. Stock solutions of actives were made in an appropriate vehicle (water/Ethanol/DMSO). Cells were treated with test material or respective vehicle control diluted in growth medium for 24 hours in a humidified 37° C. incubator with 10% CO2. The concentrations of each extract are provided based on the dry weight of the given plant extract, by which is meant the weight of the extract after volatile extraction solvents have been removed. After incubation, growth medium from each plate was removed and 100 μL of lysis buffer was added to the wells and placed in 37° C. incubator with 10% CO2 for 30 minutes. At the end of incubation, the cells are collected in freezer plates and placed in -80° C. freezer, until analysis. Changes in mRNA for after treatment were analysed using Panomics Quantigene multiplex assay that employs a branched DNA technology, following manufacturer's instructions (Affymetrix, CA). Percent increase (up-regulation) in mRNA for the […]-2 was calculated by comparing the test results to the control.

## C[C@@H]1NC(=O)N[C@@H]1CCCCCC(=O)O [D-Desthiobiotin]
0.0001%
  Nesprin-2 (percent up-regulation in mRNA, scaled score): ++++ (0.001%, (>80 (++++))
0.001%
  Nesprin-2 (percent up-regulation in mRNA, scaled score): ++++ (0.001%, (>80 (++++))
